No end group written: not given here.
Columns and labels:
Type in all cases: cell-based
E. coli = system: E. coli
Procedure: (§1) Regarding the antimicrobial polypeptide of the present invention (samples 1 to 33) and the polypeptides of comparative samples 1 to 3, the antimicrobial activities (minimum inhibitory concentration: MIC) with respect to gram-negative bacteria (E. coli) and gram-positive bacteria (S. aureus) were determined by a liquid medium dilution technique using a 96-well microplate.
(§2) More specifically, liquid bouillon media (“NUTRIENT BROTH Dehydraged” manufactured by DIFCO) in a polypeptide concentration of 500, 250, 125, 62.5, 31.3, 15.6, 7.8, 3.9, 1.9, 1.0 and 0.5 μM were prepared, and filled in a 96-well microplate. On the other hand, bacteria suspension (about 2×10^6 cells/mL) that had been stationary cultured at 37° C. for 18 hours with LB Broth, Lennox (manufactured by DIFCO) were inoculated to each well of the 96-well microplate in an equal amount to that of the pharmaceutical solution (the above-described polypeptide-containing bouillon medium). After inoculation, culture was started in an incubator at 37° C., and it was examined based on the turbidity after 24 hours and 48 hours whether or not bacteria are present. The minimum of the polypeptide concentrations in which no increase in the turbidity caused by bacteria at the time of measurement was observed was defined as MIC in this example.
(§3) The unit of MIC in Table 2 is μM. […]

S. aureus = system: S. aureus
Procedure: as §1, §2, §3

Bacillus brevis IFO15304 = system: Bacillus brevis IFO15304
Procedure: as §2
(§4) Next, regarding the polypeptides of the samples 16, 17, 10, 14, and 20, the same antimicrobial test (MIC measurement test) as in Example 2 was performed with respect to various bacteria (see Table 3), and the antimicrobial spectra of these polypeptides were evaluated.

Bacillus cereus IFO15305 = details: IFO15305, 24 h
Procedure: as §2, §4

Bacillus cereus IFO3001 = details: IFO3001, 24 h
Procedure: as §2, §4

Bacillus pumilus IFO3813 = system: Bacillus pumilus IFO3813
Procedure: as §2, §4

[1] = system: Bacillus subtilis ATCC6633; details: ATCC6633, 24 h
Procedure: as §2, §4

[2] = system: Bacillus subtilis IFO3134; details: IFO3134, 24 h
Procedure: as §2, §4

[3] = system: Escherichia coli IFO12713; details: IFO12713, 24 h
Procedure: as §2, §4

[4] = system: Escherichia coli O157:H7 sakai; details: O157:H7, 24 h
Procedure: as §2, §4

[5] = system: Klebsiella pneumoniae ATCC4352; details: ATCC4352, 24 h
Procedure: as §2, §4

[6] = system: Micrococcus luteus IFO12708; details: IFO12708, 24 h
Procedure: as §2, §4

[7] = system: Proteus vulgaris ATCC13315; details: ATCC13315, 24 h
Procedure: as §2, §4

[8] = system: Pseudomonas aeruginosa ATCC10145; details: ATCC10145, 24 h
Procedure: as §2, §4

[9] = system: Pseudomonas aeruginosa IFO3080; details: IFO3080, 24 h
Procedure: as §2, §4

[10] = system: Salmonella enteritidis IFO3313; details: IFO3313, 24 h
Procedure: as §2, §4

[11] = system: Salmonella typhimurium IFO1324; details: murium IFO1324, 24 h
Procedure: as §2, §4

[12] = system: Staphylococcus aureus COL (MRSA)
Procedure: as §2, §4

[13] = system: Staphylococcus aureus IFO12732; details: IFO12732, 24 h
Procedure: as §2, §4

[14] = system: Staphylococcus aureus IID1677 (MRSA); details: IID1677, 24 h
Procedure: as §2, §4

[15] = system: Staphylococcus aureus RN450 (*MSSA); details: RN450 (*, 24 h)
Procedure: as §2, §4

[16] = system: gram-negative bacteria (E. coli) and gram-positive bacteria (S. aureus); experiment: antimicrobial test of Example 2, results summed up in words; details: summary of Table 2, E. coli and S. aureus
Procedure: as §1, §2

Sequence | antimicrobial activity (MIC) E. coli after 48h (E. coli) [µM] | antimicrobial activity (MIC) S. aureus after 24h (S. aureus) [µM] | antimicrobial activity (MIC) S. aureus after 48h (S. aureus) [µM] | antimicrobial activity after 24 hours: MIC (Bacillus brevis IFO15304) [µM] | antimicrobial activity after 24 hours: MIC (Bacillus cereus IFO15305) [µM] | antimicrobial activity after 24 hours: MIC (Bacillus cereus IFO3001) [µM] | antimicrobial activity after 24 hours: MIC (Bacillus pumilus IFO3813) [µM] | antimicrobial activity after 24 hours: MIC [1] [µM] | antimicrobial activity after 24 hours: MIC [2] [µM] | antimicrobial activity after 24 hours: MIC [3] [µM] | antimicrobial activity after 24 hours: MIC [4] [µM] | antimicrobial activity after 24 hours: MIC [5] [µM] | antimicrobial activity after 24 hours: MIC [6] [µM] | antimicrobial activity after 24 hours: MIC [7] [µM] | antimicrobial activity after 24 hours: MIC [8] [µM] | antimicrobial activity after 24 hours: MIC [9] [µM] | antimicrobial activity after 24 hours: MIC [10] [µM] | antimicrobial activity after 24 hours: MIC [11] [µM] | antimicrobial activity after 24 hours: MIC [12] [µM] | antimicrobial activity after 24 hours: MIC [15] [µM] | also measured
RIRKKLRRIRKKLR [sample 17, RIRKKLRRIRKKLR] | 3.9 | 3.9 | 3.9 | >260.3 | >260.3 | >260.3 | 16.3 | 1.0 | 0.5 | 8.1 | 8.1 | 8.1 | 4.1 | 8.1 | 8.1 | 8.1 | 4.1 | 4.1 | 16.3 | 32.5 | antimicrobial activity after 24 hours: MIC [13]: 2.0 µM; antimicrobial activity after 24 hours: MIC [14]: 8.1 µM
RKKKRKVLALKLAGLDI [sample 14, RKKKRKVLALKLAGLDI] | 3.9 | 1.0 | 1.9 | 128.2 | 64.1 | 32.0 | 4.0 | 1.0 | 1.0 | 8.0 | 8.0 | 32.0 | 4.0 | 64.1 | 32.0 | 16.0 | 32.0 | >256.3 | 16.0 | 16.0 | antimicrobial activity (MIC) E. coli after 24h (E. coli): 3.9 µM; antimicrobial activities (in words) [16]: high antimicrobial activities
RKKKRKVRKKKRKV [sample 20, RKKKRKVRKKKRKV] | 1.9 | 1.9 | 1.9 | 133.9 | 133.9 | >267.9 | 16.7 | 2.1 | 4.2 | 8.4 | 8.4 | 4.2 | 8.4 | 8.4 | 4.2 | 4.2 | 4.2 | 8.4 | 33.5 | 33.5 | antimicrobial activity (MIC) E. coli after 24h (E. coli): 1.9 µM; antimicrobial activity after 24 hours: MIC [13]: 4.2 µM; antimicrobial activity after 24 hours: MIC [14]: 8.4 µM

Reference: US7482328B2, “Antimicrobial polypeptide and utilization thereof” (Toagosei Co., Ltd., priority 2002, dated 2009)
